Results published in patent publication US4087603A, “Antifungal antibiotics” (priority 1976, dated 1978).

Columns and labels:
Solubility = format: physicochemical
[1] = test system: systemic fungal infections; conditions: cited from earlier work
fungi = conditions: cited from earlier work
Acute toxicity in mice = format: in vivo
C. albicans A-26 = experiment: In vivo antifungal activity in X-irradiated mice infected intravenously with C. albicans A-26; conditions: Candida albicans, A26, light or radiation study, sc, C. albicans A-26 i.v. infection, sub-lethal X-irradiation 24 hours prior, read-out: average effective dose, ED50
Experimental: As previously mentioned, the compounds of this invention are effective systemic antifungal agents. When administered orally or parenterally, the antifungal compounds of this invention are effective in combatting systemic fungal infections for example, Candida albicans systemic infections. […] The tests in mice were carried out in the following manner. Two groups of mice, one a control group, were exposed to a sub-lethal dose of X-irradiation 24 hours prior to infection with C. albicans A-26. The mice were infected by intravenous administration of C. albicans cells.

| Compound | solubility in methanol (Solubility) | activity in vivo (known antibiotic) [1] | activity in vitro (known antibiotic) (fungi) | acute toxicity (Acute toxicity in mice; mice, dose of about 1000 mg./kg.) | solubility in acetone (Solubility; acetone) | solubility in ethanol (Solubility; ethanol) | solubility in water (Solubility) | ED50 (C. albicans A-26) [mg/kg] | acute toxicity (Acute toxicity in mice; dose of 400 mg./kg.) |
| --- | --- | --- | --- | --- | --- | --- | --- | --- | --- |
| Nc1ncnc2c1ncn2[C@@H]1O[C@H](CC(N)CC[C@H](N)C(=O)O)[C@@H](O)[C@H]1O (stereo partly drawn) [A-9145, 5'-deoxy-5'-(1,4-diamino-4-carboxybutyl)adenosine] | partially soluble | active both in vitro and in vivo | active both in vitro and in vivo |  |  |  |  |  |  |
| Nc1ncnc2c1ncn2[C@@H]1O[C@H](CC2CCC(N)C(=O)N2)[C@@H](O)[C@H]1O (stereo partly drawn) [compound I, 5'-deoxy-5'-(3-aminopiperidin-2-one-6-yl)adenosine] | sparingly soluble |  |  | no acute toxicity was observed | sparingly soluble | sparingly soluble | highly soluble | 38 |  |
| NC(=O)NC(CCC(N)C[C@H]1O[C@@H](n2cnc3c(N)ncnc32)[C@H](O)[C@@H]1O)C(N)=O (stereo partly drawn) [compound II, 5'-deoxy-5'-(1-amino-4-ureido-4-carboxyamidobutyl)adenosine] |  |  |  |  |  |  | highly soluble | ~21 | no acute toxicity was observed |
